Source: patent US20240368133A1, “Compounds for the Treatment of Pain, in Particular, Neuropathic Pain, and/or Other Diseases or Disorders that are Associated with AT2R and/or AT2R Mediated Signaling” (Confo Therapeutics N.V., priority 2021, published 2024)

Assay: Thermodynamic solubility protocol 2 (FaSSIF, FeSSIF)
Assay type: physicochemical
Details: 25° C.
Description: In a 8 mL glass vial, 1-2 mg of dry matter of the test compound were mixed with the suitable buffers (Fed State Simulated Intestine Fluid (FeSSIF) or Fasted State Simulated Intestine Fluid (FaSSIF)) to reach a theoretical concentration of 4 mM. The solutions were allowed to further equilibrate at 25° C. on a thermostatic shaker. After 4 and 24 hours of shaking, respectively, the incubation mixtures were filtered through HTS filter plates using a vacuum manifold. The filtrates of test compounds were diluted 500-fold with acetonitrile/buffer mixtures with 2% DMSO before measuring. In parallel, using a 20 mM DMSO stock solution, compound dilutions in 50% acetonitrile/buffer (v/v) were prepared to the theoretical concentrations of 0 μM (blank), 10 μM, 25 μM, 50 μM, 100 μM and 200 μM with 2% final DMSO to generate calibration curves. Calibration standards were diluted 100-fold with 50% acetonitrile/water (v/v) mixes before LC-MS/MS measurement (systems API4000 QTRAP).

CC(C)Cc1cc(F)c(-c2nn[nH]n2)c(N2CCN(Cc3cccnn3)[C@@H](C)C2)c1 [Compound A-174, 3-[[(2S)-4-[3-fluoro-5-isobutyl-2-(2H-tetrazol-5-yl)phenyl]-2-methyl-piperazin-1-yl]methyl]pyridazine]
>400 μM: TSOL FaSSIF pH 6.5 (time point 4 h) | TSOL FeSSIF pH 5.0 (time point 4 h) | TSOL FaSSIF pH 6.5 (time point 24 h) | TSOL FeSSIF pH 5.0 (time point 24 h)
